Laboratory results from US10308639B2, “Phosphatidylinositol 3-kinase inhibitors” (Gilead Sciences, Inc., priority 2014, dated 2019).
Read-outs that look alike come from different tables or passages of the source.

Tests used:
Assay type in all cases: biochemical
PI3Kβ = biological target: T1, PI3Kβ (Homo sapiens, UniProt P42338); test: TR-FRET enzymatic activity assay, PI3Kβ
T1 construct: made in house

PI3Kδ = biological target: T2, PI3Kδ (Homo sapiens, UniProt O00329); test: TR-FRET enzymatic activity assay, PI3Kδ
T2 construct: made in house

PI3Kγ = biological target: T3, PI3Kγ (Homo sapiens, UniProt P48736); test: TR-FRET enzymatic activity assay, PI3Kγ; settings: read-out: PI3Kγ IC50
T3 construct: made in house
Method in brief: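 Each PI3K isoform is tested in an enzymatic format. Signal comes from time-resolved fluorescence energy transfer.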

[1] = Table 2, TR-FRET, 2x Km ATP, 30 minutes at 25° C.

T1 sequence (P42338 whole entry): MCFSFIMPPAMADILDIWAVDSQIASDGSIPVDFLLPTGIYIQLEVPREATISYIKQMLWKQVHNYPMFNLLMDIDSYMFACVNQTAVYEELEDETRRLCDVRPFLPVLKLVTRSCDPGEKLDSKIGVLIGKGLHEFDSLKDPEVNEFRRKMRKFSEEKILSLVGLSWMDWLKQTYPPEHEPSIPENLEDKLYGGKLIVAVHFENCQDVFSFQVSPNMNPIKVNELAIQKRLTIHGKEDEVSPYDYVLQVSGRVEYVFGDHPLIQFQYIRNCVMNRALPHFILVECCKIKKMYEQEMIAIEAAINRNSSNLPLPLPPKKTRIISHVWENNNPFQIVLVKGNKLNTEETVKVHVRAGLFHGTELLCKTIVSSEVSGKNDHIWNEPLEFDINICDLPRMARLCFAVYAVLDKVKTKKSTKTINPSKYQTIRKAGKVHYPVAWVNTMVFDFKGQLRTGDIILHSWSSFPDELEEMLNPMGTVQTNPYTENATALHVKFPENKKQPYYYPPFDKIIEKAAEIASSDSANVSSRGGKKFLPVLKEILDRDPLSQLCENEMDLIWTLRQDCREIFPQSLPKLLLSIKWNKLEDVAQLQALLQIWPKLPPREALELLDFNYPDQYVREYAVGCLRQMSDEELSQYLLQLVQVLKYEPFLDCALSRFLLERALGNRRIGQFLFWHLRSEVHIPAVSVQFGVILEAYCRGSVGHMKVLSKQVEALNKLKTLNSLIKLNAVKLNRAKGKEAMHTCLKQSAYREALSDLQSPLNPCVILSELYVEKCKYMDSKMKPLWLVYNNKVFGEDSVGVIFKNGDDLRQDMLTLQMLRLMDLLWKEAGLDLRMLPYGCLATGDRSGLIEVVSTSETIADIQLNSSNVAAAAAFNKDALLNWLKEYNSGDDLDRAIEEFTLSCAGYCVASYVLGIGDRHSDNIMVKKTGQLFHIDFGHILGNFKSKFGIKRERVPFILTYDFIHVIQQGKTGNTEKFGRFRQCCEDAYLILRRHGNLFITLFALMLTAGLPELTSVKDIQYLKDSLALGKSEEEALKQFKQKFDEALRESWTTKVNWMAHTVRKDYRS
T1 sequence (P27986 whole entry partner): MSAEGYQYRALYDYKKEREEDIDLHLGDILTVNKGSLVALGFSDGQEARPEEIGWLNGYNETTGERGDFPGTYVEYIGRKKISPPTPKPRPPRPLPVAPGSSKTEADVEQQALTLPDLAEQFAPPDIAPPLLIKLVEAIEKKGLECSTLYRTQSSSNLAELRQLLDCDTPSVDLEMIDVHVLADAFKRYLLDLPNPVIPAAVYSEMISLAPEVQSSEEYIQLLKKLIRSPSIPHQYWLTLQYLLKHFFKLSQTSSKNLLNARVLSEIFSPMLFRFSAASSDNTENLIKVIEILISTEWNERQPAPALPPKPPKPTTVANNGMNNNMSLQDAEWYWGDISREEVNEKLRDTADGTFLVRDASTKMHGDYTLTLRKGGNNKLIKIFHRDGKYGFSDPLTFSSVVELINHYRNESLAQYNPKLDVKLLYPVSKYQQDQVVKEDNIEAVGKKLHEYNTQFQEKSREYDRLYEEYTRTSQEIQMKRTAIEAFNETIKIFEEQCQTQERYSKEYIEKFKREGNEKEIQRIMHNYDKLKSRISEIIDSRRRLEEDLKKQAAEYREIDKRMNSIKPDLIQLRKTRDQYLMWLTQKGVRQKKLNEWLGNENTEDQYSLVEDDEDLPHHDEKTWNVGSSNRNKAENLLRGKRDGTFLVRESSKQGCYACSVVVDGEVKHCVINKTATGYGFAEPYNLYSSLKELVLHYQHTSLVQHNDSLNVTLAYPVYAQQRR
T2 sequence (O00329 whole entry): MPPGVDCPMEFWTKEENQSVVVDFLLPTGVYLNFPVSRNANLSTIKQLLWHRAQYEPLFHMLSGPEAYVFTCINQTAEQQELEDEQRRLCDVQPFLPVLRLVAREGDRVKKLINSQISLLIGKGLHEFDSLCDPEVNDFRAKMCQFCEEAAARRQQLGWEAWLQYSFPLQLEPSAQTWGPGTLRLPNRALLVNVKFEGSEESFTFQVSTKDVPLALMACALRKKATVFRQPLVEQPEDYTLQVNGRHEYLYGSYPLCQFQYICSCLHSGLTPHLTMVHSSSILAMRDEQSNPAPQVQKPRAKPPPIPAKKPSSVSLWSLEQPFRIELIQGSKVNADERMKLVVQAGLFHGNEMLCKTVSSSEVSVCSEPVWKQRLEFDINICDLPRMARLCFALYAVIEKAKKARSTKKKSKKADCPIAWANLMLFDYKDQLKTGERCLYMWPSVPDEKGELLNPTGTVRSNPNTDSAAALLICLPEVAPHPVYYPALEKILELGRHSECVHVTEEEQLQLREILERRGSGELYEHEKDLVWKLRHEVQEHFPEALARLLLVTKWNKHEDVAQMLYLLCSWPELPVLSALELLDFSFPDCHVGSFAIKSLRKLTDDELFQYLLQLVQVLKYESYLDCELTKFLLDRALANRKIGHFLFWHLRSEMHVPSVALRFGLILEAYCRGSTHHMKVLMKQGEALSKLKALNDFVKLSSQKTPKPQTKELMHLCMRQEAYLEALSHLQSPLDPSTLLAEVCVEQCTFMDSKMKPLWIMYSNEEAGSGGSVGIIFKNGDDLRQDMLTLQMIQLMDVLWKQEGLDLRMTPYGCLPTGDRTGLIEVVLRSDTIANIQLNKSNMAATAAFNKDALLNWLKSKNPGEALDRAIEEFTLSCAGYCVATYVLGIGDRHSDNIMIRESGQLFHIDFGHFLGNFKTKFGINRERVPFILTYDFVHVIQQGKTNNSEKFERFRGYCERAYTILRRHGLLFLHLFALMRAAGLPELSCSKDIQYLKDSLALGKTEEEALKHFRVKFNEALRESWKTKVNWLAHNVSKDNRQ
T2 sequence (P27986 whole entry partner): as the sequence (P27986 whole entry partner) above
T3 sequence (P48736 whole entry): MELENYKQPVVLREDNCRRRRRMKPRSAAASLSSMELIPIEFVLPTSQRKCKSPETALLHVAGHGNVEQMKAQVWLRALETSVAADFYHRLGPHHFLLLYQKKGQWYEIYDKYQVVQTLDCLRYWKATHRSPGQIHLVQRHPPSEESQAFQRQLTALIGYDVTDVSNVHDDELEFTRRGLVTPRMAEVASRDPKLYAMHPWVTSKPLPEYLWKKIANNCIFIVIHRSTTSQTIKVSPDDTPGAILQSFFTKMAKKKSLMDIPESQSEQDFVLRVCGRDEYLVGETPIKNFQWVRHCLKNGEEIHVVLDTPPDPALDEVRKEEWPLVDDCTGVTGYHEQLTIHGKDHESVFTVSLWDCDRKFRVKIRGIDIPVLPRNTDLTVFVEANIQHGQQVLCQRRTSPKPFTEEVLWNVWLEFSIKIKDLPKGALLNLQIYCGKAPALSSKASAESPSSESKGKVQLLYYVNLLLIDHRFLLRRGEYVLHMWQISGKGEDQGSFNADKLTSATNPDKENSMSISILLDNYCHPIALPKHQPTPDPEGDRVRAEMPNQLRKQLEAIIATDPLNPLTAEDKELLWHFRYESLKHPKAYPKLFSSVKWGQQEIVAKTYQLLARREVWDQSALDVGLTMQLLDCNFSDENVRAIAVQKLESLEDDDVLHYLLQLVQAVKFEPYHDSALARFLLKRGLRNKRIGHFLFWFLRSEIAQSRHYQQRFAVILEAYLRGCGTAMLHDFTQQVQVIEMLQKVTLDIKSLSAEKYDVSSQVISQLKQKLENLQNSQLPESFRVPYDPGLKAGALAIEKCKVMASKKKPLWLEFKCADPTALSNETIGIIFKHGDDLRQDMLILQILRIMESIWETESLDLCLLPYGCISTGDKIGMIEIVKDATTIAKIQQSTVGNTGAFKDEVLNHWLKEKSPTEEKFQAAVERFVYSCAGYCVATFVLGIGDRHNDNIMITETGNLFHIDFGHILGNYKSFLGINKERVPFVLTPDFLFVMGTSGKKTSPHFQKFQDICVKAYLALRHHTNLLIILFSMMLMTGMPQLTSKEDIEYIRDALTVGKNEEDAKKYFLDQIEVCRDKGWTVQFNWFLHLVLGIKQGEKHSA

Row | SMILES | IC50 (PI3Kβ; [1]) [nM] | IC50 (PI3Kδ; [1]) [nM] | IC50 (PI3Kγ) [nM] | IC50 (PI3Kγ; [1]) [nM] | IC50 (PI3Kβ; Table 2a, same assay) [nM] | IC50 (PI3Kδ; Table 2a, same assay) [nM] | IC50 (PI3Kγ; Table 2a, same assay) [nM]
1 | CC[C@H](Nc1nc(N)nc(N)c1Cl)c1nc2c(C#N)cccc2c(=O)n1-c1cn[nH]c1 [Compound 95, (S)-2-(1-((2,6-diamino-5-chloropyrimidin-4-yl)amino)propyl)-4-oxo-3-(1H-pyrazol-4-yl)-3,4-dihydroquinazoline-8-carbonitrile] | 1700 | 300 | > 10000 | – | – | – | –
2 | N#Cc1c(N)nc(N)nc1N[C@@H](c1ccccc1)c1nc2cccc(Cl)c2c(=O)n1-c1cn[nH]c1 [Compound 106, (S)-2,4-diamino-6-(((5-chloro-4-oxo-3-(1H-pyrazol-4-yl)-3,4-dihydroquinazolin-2-yl)(phenyl)methyl)amino)pyrimidine-5-carbonitrile] | 4 | 2 | – | 210 | – | – | –
3 | Nc1nc(N)c(Cl)c(N[C@H](c2nc3c(F)cccc3c(=O)n2-c2cc[nH]n2)C2CC2)n1 [Compound 12, (S)-2-(cyclopropyl((2,6-diamino-5-chloropyrimidin-4-yl)amino)methyl)-8-fluoro-3-(1H-pyrazol-3-yl)quinazolin-4(3H)-one] | 220 | 51 | > 10000 | – | – | – | –
4 | Nc1nc(N)c(Cl)c(N[C@H](c2nc3cc(F)cc(Cl)c3c(=O)n2-c2cc[nH]n2)C2CC2)n1 [Compound 240, (S)-5-chloro-2-(cyclopropyl((2,6-diamino-5-chloropyrimidin-4-yl)amino)methyl)-7-fluoro-3-(1H-pyrazol-3-yl)quinazolin-4(3H)-one] | – | – | – | – | 99 | 42 | > 10000
5 | Cc1c[nH]nc1-n1c([C@@H](Nc2nc(N)nc(Cl)c2C#N)C2CC2)nc2cccc(Cl)c2c1=O [Compound 243, (S)-2-amino-4-chloro-6-(((5-chloro-3-(4-methyl-1H-pyrazol-3-yl)-4-oxo-3,4-dihydroquinazolin-2-yl)(cyclopropyl)methyl)amino)pyrimidine-5-carbonitrile] | – | – | – | – | 200 | 34 | 3100
6 | Cc1c[nH]nc1-n1c([C@@H](Nc2nc(N)nc(N)c2C#N)C2CC2)nc2c(C#N)cccc2c1=O [Compound 241, (S)-2-(cyclopropyl((2,6-diamino-5-cyanopyrimidin-4-yl)amino)methyl)-3-(4-methyl-1H-pyrazol-3-yl)-4-oxo-3,4-dihydroquinazoline-8-carbonitrile] | – | – | – | – | 93 | 7 | > 10000
7 | C[C@H](Nc1nc(N)nc(N)c1C#N)c1nc2cccc(Cl)c2c(=O)n1-c1n[nH]cc1Br [Compound 84, (S)-2,4-diamino-6-((1-(3-(4-bromo-1H-pyrazol-3-yl)-5-chloro-4-oxo-3,4-dihydroquinazolin-2-yl)ethyl)amino)pyrimidine-5-carbonitrile] | 8 | 0.4 | – | 93 | – | – | –
8 | N#Cc1c(N)nc(N)nc1N[C@H](c1nc2c(Cl)ccc(Cl)c2c(=O)n1-c1cc[nH]n1)C1CC1 [Compound 32, (S)-2,4-diamino-6-((cyclopropyl(5,8-dichloro-4-oxo-3-(1H-pyrazol-3-yl)-3,4-dihydroquinazolin-2-yl)methyl)amino)pyrimidine-5-carbonitrile] | 1 | 1 | – | 600 | – | – | –
9 | Cc1c[nH]nc1-n1c([C@@H](Nc2nc(N)nc(Cl)c2C#N)C2CC2)nc2c(C#N)cccc2c1=O [Compound 246, (S)-2-(((2-amino-6-chloro-5-cyanopyrimidin-4-yl)amino)(cyclopropyl)methyl)-3-(4-methyl-1H-pyrazol-3-yl)-4-oxo-3,4-dihydroquinazoline-8-carbonitrile] | – | – | – | – | 320 | 36 | > 10000
10 | N#Cc1c(N)nc(N)nc1N[C@H](c1nc2cccc(C(F)F)c2c(=O)n1-c1cc[nH]n1)C1CC1 [Compound 214, (S)-2,4-diamino-6-((cyclopropyl(5-(difluoromethyl)-4-oxo-3-(1H-pyrazol-3-yl)-3,4-dihydroquinazolin-2-yl)methyl)amino)pyrimidine-5-carbonitrile] | – | – | – | – | 2 | 0.6 | 240
11 | C[C@H](Nc1nc(N)nc(N)c1C#N)c1nc2c(Cl)ccc(C(F)F)c2c(=O)n1-c1cc[nH]n1 [Compound 228, (S)-2,4-diamino-6-((1-(8-chloro-5-(difluoromethyl)-4-oxo-3-(1H-pyrazol-3-yl)-3,4-dihydroquinazolin-2-yl)ethyl)amino)pyrimidine-5-carbonitrile] | – | – | – | – | 1 | 0.6 | 870
12 | N#Cc1c(N)nc(N)nc1N[C@H](c1nc2c(C(F)F)cc(F)cc2c(=O)n1-c1cc[nH]n1)C1CC1 [Compound 143, (S)-2,4-diamino-6-((cyclopropyl(8-(difluoromethyl)-6-fluoro-4-oxo-3-(1H-pyrazol-3-yl)-3,4-dihydroquinazolin-2-yl)methyl)amino)pyrimidine-5-carbonitrile] | – | – | – | – | 2 | 3 | 7500
13 | C[C@H](Nc1nc(N)nc(N)c1C#N)c1nc2c(Cl)ccc(Cl)c2c(=O)n1-c1cn[nH]c1 [Compound 217, (S)-2,4-diamino-6-((1-(5,8-dichloro-4-oxo-3-(1H-pyrazol-4-yl)-3,4-dihydroquinazolin-2-yl)ethyl)amino)pyrimidine-5-carbonitrile] | – | – | – | – | 0.6 | 0.2 | 83
14 | Cc1n[nH]cc1-n1c([C@@H](Nc2nc(N)nc(N)c2Cl)C2CC2)nc2c(Cl)cc(F)cc2c1=O [Compound 221, (S)-8-chloro-2-(cyclopropyl((2,6-diamino-5-chloropyrimidin-4-yl)amino)methyl)-6-fluoro-3-(3-methyl-1H-pyrazol-4-yl)quinazolin-4(3H)-one] | – | – | – | – | 1100 | 180 | > 10000
15 | C[C@H](Nc1nc(N)nc(N)c1C#N)c1nc2cccc(Cl)c2c(=O)n1-c1cn[nH]c1 [Compound 15, (S)-2,4-diamino-6-((1-(5-chloro-4-oxo-3-(1H-pyrazol-4-yl)-3,4-dihydroquinazolin-2-yl)ethyl)amino)pyrimidine-5-carbonitrile] | 1 | 0.4 | – | 43 | – | – | –
16 | C[C@H](Nc1nc(N)nc(C(F)F)c1C#N)c1nc2c(F)ccc(Cl)c2c(=O)n1-c1cc[nH]n1 [Compound 185, (S)-2-amino-4-((1-(5-chloro-8-fluoro-4-oxo-3-(1H-pyrazol-3-yl)-3,4-dihydroquinazolin-2-yl)ethyl)amino)-6-(difluoromethyl)pyrimidine-5-carbonitrile] | – | – | – | – | 6 | 4 | 1300
17 | Nc1nc(N)c(Cl)c(N[C@H](c2nc3c(F)ccc(Cl)c3c(=O)n2-c2cc[nH]n2)C2CC2)n1 [Compound 70, (S)-5-chloro-2-(cyclopropyl((2,6-diamino-5-chloropyrimidin-4-yl)amino)methyl)-8-fluoro-3-(1H-pyrazol-3-yl)quinazolin-4(3H)-one] | 30 | 14 | > 10000 | – | – | – | –
18 | Cc1ccc(Cl)c2nc([C@H](C)Nc3nc(N)nc(N)c3C#N)n(-c3cc[nH]n3)c(=O)c12 [Compound 222, (S)-2,4-diamino-6-((1-(8-chloro-5-methyl-4-oxo-3-(1H-pyrazol-3-yl)-3,4-dihydroquinazolin-2-yl)ethyl)amino)pyrimidine-5-carbonitrile] | – | – | – | – | 0.6 | 0.2 | 360
19 | C[C@H](Nc1nc(N)nc(N)c1Cl)c1nc2cccc(C(F)(F)F)c2c(=O)n1-c1cc[nH]n1 [Compound 208, (S)-2-(1-((2,6-diamino-5-chloropyrimidin-4-yl)amino)ethyl)-3-(1H-pyrazol-3-yl)-5-(trifluoromethyl)quinazolin-4(3H)-one] | – | – | – | – | 8 | 6 | 4400
20 | Nc1nc(N)c(Cl)c(N[C@H](c2nc3c(F)ccc(F)c3c(=O)n2-c2cc[nH]n2)C2CC2)n1 [Compound 11, (S)-2-(cyclopropyl((2,6-diamino-5-chloropyrimidin-4-yl)amino)methyl)-5,8-difluoro-3-(1H-pyrazol-3-yl)quinazolin-4(3H)-one] | 120 | 44 | > 10000 | – | – | – | –
21 | C[C@H](Nc1nc(N)nc(N)c1Cl)c1nc2cc(F)cc(Cl)c2c(=O)n1-c1cc[nH]n1 [Compound 238, (S)-5-chloro-2-(1-((2,6-diamino-5-chloropyrimidin-4-yl)amino)ethyl)-7-fluoro-3-(1H-pyrazol-3-yl)quinazolin-4(3H)-one] | – | – | – | – | 21 | 15 | > 10000
22 | C[C@H](Nc1nc(N)nc(N)c1Cl)c1nc2c(Cl)cc(F)cc2c(=O)n1-c1n[nH]cc1Br [Compound 270, (S)-3-(4-bromo-1H-pyrazol-3-yl)-8-chloro-2-(1-((2,6-diamino-5-chloropyrimidin-4-yl)amino)ethyl)-6-fluoroquinazolin-4(3H)-one] | – | – | – | – | 2300 | 26 | > 10000
23 | Cc1c[nH]nc1-n1c([C@@H](Nc2nc(N)nc(N)c2Cl)C2CC2)nc2cccc(Cl)c2c1=O [Compound 248, (S)-5-chloro-2-(cyclopropyl((2,6-diamino-5-chloropyrimidin-4-yl)amino)methyl)-3-(4-methyl-1H-pyrazol-3-yl)quinazolin-4(3H)-one] | – | – | – | – | 650 | 45 | 8600
24 | C[C@H](Nc1nc(N)nc(N)c1C#N)c1nc2cccc(C(F)F)c2c(=O)n1-c1cc[nH]n1 [Compound 211, (S)-2,4-diamino-6-((1-(5-(difluoromethyl)-4-oxo-3-(1H-pyrazol-3-yl)-3,4-dihydroquinazolin-2-yl)ethyl)amino)pyrimidine-5-carbonitrile] | – | – | – | – | 0.6 | 0.3 | 82
25 | CCC[C@H](Nc1nc(N)nc(N)c1C#N)c1nc2cccc(Cl)c2c(=O)n1-c1cn[nH]c1 [Compound 249, (S)-2,4-diamino-6-((1-(5-chloro-4-oxo-3-(1H-pyrazol-4-yl)-3,4-dihydroquinazolin-2-yl)butyl)amino)pyrimidine-5-carbonitrile] | – | – | – | – | 3 | 1 | 160
